Data set [1] concerns Canidae. The settings on record: subchronic; duration: 13 weeks; oral; diet; M/F; Dog Other; swollen salivary gland, status spongiosis in brain and optic nerve.
The subject of data set [2] is Canidae. The settings on record: subchronic; duration: 13 weeks; oral; diet; Dog Other; Nervous system: Effects.
For data set [3], the system named is Rattus norvegicus. The settings on record: subchronic, oral, Fischer 344.
Data set [4] has as its system Rattus norvegicus. The settings on record: oral, M/F.
The subject of data set [5] is Oryctolagus sp. The settings on record: reproduction developmental; duration: 12 days; oral; gavage; M/F; New Zealand; gastrointestinal.
Data set [6] concerns Rattus norvegicus. The settings on record: chronic, duration: 24 months, oral, diet, albino Sprague Dawley, gastrointestinal.
The subject of data set [7] is Rattus norvegicus. The settings on record: Hershberger, duration: 10 days, oral, gavage, Sprague-Dawley.
The subject of data set [8] is Cavia porcellus. The settings on record: acute, oral, Guinea Pig.
Data set [9] deals with Mus musculus. The settings on record: oral.
For data set [10], the system named is Oryctolagus sp. The settings on record: acute.
Data set [11] has as its system Rattus norvegicus. The settings on record: for LD50: acute.
Data set [12] has as its system Rattus norvegicus. The settings on record: repeat dose other; oral.
The test system of data set [13] is Neovison sp. The settings on record: repeat dose other; oral; Mink.
Data set [14] deals with Homo sapiens. The settings on record: clinical; duration: 4 hours; inhalation; M/F; neurological.
The subject of data set [15] is Rattus norvegicus. The settings on record: subchronic; duration: 90 days; oral; gavage; Kidney: Increased weight + Kidney: Nephrotoxicity + Liver: Increased weight.
The mark [16] stands for this setting: reproduction developmental, increased incidence of renal tubular dilation in f3b offspring.
Where [17] appears, read: short-term, duration: 11 days, diet, B6C3F1.
Where [18] appears, read: subchronic, duration: 3 months, gavage, B6C3F1.
[19] abbreviates: short-term, duration: 9 days, oral, gavage, Fischer 344.
Setting [20] is: subchronic, duration: 3 months, oral, diet, Wistar.
[21] abbreviates: subchronic, duration: 3 months, oral, gavage, Fischer 344.
[22] abbreviates: subchronic, drinking water, nephropathy.

“And” between values parts separate entries of the source, which are not always exact repeats. Identical values can stand only once.

Broadly, the LOAEL is the lowest dose or exposure tested at which an adverse effect was seen. Regarding `Oc1c(Cl)cc(Cl)c(Cl)c1Cc1c(O)c(Cl)cc(Cl)c1Cl` [Hexachlorophene], the LEL in [1] amounted to 0.75 mg/kg-day. Moreover, the LOAEL in data set [2] was 0.75 mg/kg-day.

As usually defined, the NOAEL is the highest dose or exposure tested at which no adverse effect was seen. Turning to `O=C(O)CNCP(=O)(O)O` [Glyphosate], the NOEL in data set [3] (diet, F, Clinical Observation: Diarrhea + Body Weight Changes: decrease(>25000 ) + Hematology: Hct increase, RBC increase, Hgb increase + Blood …) was 213 mg/kg-day; in [3] (diet, M/F, Clinical Observation: Diarrhea + Body Weight Changes: decrease(>25000 ) + Hematology: Hct increase, RBC increase, Hgb increase + Blood …) it was less than 300 mg/kg-day; in [4] (setting [16]), 10 mg/kg-day; in data set [7] (inactive + Negative + Negative + neither + decrease in AST and liver at 1000 / decrease in bw 10% at 1000 / testosterone dose-dependent …) it was 300 mg/kg-day. The compound further displayed an LEL in data set [4] (setting [16]) of 30 mg/kg-day. The NOAEL in [5] was determined as 100 mg/kg-day; in [6] (F), 113 mg/kg-day; in [6] (M/F), 113 mg/kg-day.

For orientation: LD50 means the dose at which mortality reaches 50%. In the case of `CCCCC(CC)CO` (centres undefined) [2-Ethyl-1-hexanol], the LD50 is ≥ 1220 mg/kg and ≤ 2820 mg/kg in data set [8]; 600 mg/kg in data set [8] (gavage); > 2600 mg/kg and 1980 mg/kg in [10] (dermal); 1180 mg/kg and 1470 mg/kg in [10] (oral); greater than 3000 mg/kg in data set [11] (dermal); 7000 mg/kg in data set [11] (oral, gavage, albino). In addition, the NOAEL in [9] (developmental, duration: 18 days, diet, CD1) is greater than 191 mg/kg-day; in data set [9] (reproduction developmental, duration: 18 days, diet, F, CD1), greater than 191 mg/kg-day; in [9] (reproduction developmental, diet, F, CD1), greater than 191 mg/kg-day; in data set [9] (short-term, duration: 11 days, diet, F, B6C3F1), 2650 mg/kg-day and 1000 mg/kg-day; in data set [9] (short-term, duration: 11 days, gavage, B6C3F1), 100 mg/kg-day; in data set [9] (setting [18]), ≥ 125 mg/kg-day and ≤ 250 mg/kg-day. For the same compound, the NOAEL is 250 mg/kg-day in data set [9] (subchronic, duration: 3 months, gavage, F, B6C3F1); 125 mg/kg-day in [9] (subchronic, duration: 3 months, gavage, M, B6C3F1); greater than 2520 mg/kg-day in [11] (developmental, dermal, occlusive, Fischer 344); greater than 2520 mg/kg-day in [11] (developmental, duration: 10 days, dermal, occlusive, Fischer 344); 650 mg/kg-day in [11] (developmental, oral, gavage, Wistar); 0.648 mg/L and 0.32 mg/L in data set [11] (repeat dose other, inhalation, Wistar). Moreover, the NOAEL in data set [11] (reproduction developmental, duration: 10 days, oral, gavage, F, Wistar) is 130 mg/kg-day; in [11] (reproduction developmental, oral, gavage, F, Wistar), 130 mg/kg-day; in data set [11] (short-term, duration: 9 days, oral, drinking water, Fischer 344) it was 636 ppm; in [11] (setting [19]) it was 83 mg/kg-day; in data set [11] (short-term, duration: 14 days, inhalation, Wistar), 0.32 mg/L; in data set [11] (setting [21]), 125 mg/kg-day and ≤ 250 mg/kg-day. The compound also gave an NOAEL in [11] (subchronic, duration: 13 weeks, oral, gavage) of 250 mg/kg-day. The “NOAEL (% diet)” value in [9] (repeat dose other, diet, B6C3F1) was ≥ 0.44 and ≤ 0.66; in [9] (setting [17]), ≥ 0.44 and ≤ 0.66; in data set [11] (repeat dose other, oral, diet, Fischer 344) it was 0.46; in data set [11] (setting [20]), 0.05. Besides, the LOAEL in data set [9] (setting [17]) is ≥ 1000 mg/kg-day and ≤ 1500 mg/kg-day; in data set [9] (setting [18]), ≥ 250 mg/kg-day and ≤ 500 mg/kg-day; in data set [11] (repeat dose other, oral, gavage, Fischer 344) it was 100 mg/kg-day; in data set [11] (setting [19]) it was 100 mg/kg-day; in data set [11] (short-term, duration: 21 days, oral, gavage, Fischer 344) it was 100 mg/kg-day; in [11] (setting [21]), 250 mg/kg-day. Moreover, the “LOAEL (% diet)” value in data set [9] (setting [17]) is ≥ 0.66 and ≤ 1.32; in data set [11] (setting [20]) it was 0.25.

In data set [12], `[CH3][Hg][Cl]` [Methylmercuric(II) chloride] came in with an LOAEL of 0.16 mg/kg-day and an NOAEL of 0.032 mg/kg-day. In data set [13], this compound yielded an LOAEL of 0.025 mg/kg-day and an NOAEL of 0.015 mg/kg-day.

For the compound `CC(C)=O` [Acetone], the NOEL is 380 mg/kg-day in [3] (drinking water, M/F, Body Weight Changes: decrease + Water Consumption: decrease + Hematology: WBC increase, Lymph increase, Hgb decrease, RBC decrease, MCH …); 1000 mg/kg-day in data set [7] (inactive + Negative + Negative + neither + see comment); 100 mg/kg-day in [15]. Besides, the LOAEL in data set [12] came out at 50 mg/kg-day; in data set [4] (setting [22]), 1700 mg/kg-day; in data set [14], 563 mg/m3. For the same compound, the NOAEL in data set [12] came out at 10 mg/kg-day; in data set [4] (setting [22]), 900 mg/kg-day.

For the origin of these results see EPA's ToxValDB 9.5.
